The values below come from US7575889B2, “Compound combinations for inhibiting cell division and methods for their identification and use” (President and Fellows of Harvard College, priority 2001, dated 2009).

In one test the test system is E. coli strain DRC39. Put plainly: Combination anti-bacterial treatment at sub-MIC concentrations, growth of DRC39. Particulars: for reduction of the MIC when combined with sub-MIC 26E-10: DRC39. The class given is cell-based. The method, then: Cell growth was assessed by visual inspection of cells incubated in culture tubes in this experiment and in the second, third, and fourth experiments described in this Example. In the fifth experiment growth was measured by reading optical density (OD600) using a multiwell plate reader. Cells were inoculated at a low concentration (1-2×10^5 cells/ml), such that the medium appeared clear.

Another test has as its target FtsZ GTPase activity (Escherichia coli, UniProt P0A9A6). As to conditions: at the concentrations tested.
Test [1] deals with E. coli DRC39 (ΔacrAB::kan). Particulars: for MIC: E. coli DRC39 (ΔacrAB::kan), MIC99, broth dilution.
Another test deals with FtsZ protofilaments (Escherichia coli, UniProt P0A9A6). As to conditions: for effect on FtsZ polymers (class of inhibitor): electron micrographs, FIGS. 13-15.
Test [2] deals with gram-negative and gram-positive bacteria. Description: Antibacterial activity against gram-negative and gram-positive bacteria. The class given is cell-based. The method, then:
FIG. 19 is a table illustrating the minimum inhibitory concentrations of FtsZ GTPase inhibitory compounds identified in vitro. The compounds were tested against a variety of gram-negative and gram-positive bacteria.

Test [3] addresses M. tuberculosis FtzZ (FtsZMt) GTPase (Mycobacterium tuberculosis, UniProt P9WN95). Description: Malachite green-phosphomolybdate assay of FtsZ GTPase activity (M. tuberculosis FtsZ). As to conditions: 5 min preincubation at 30° C., 1 mM GTP, averages from three determinations. In kind it is biochemical.
A further test has as its system DRC40/pBR-ftsZ+ cells. Put plainly: MIC and growth/phenotype, DRC40 with wild-type ftsZ in trans. In kind it is cell-based, E. coli.
The subject of test [4] is FtsZ ring assembly in E. coli DRC39 cells. Put plainly: FtsZ ring assembly in vivo (FtsZ-GFP fluorescence microscopy) in DRC39 cells. In kind it is cell-based.
The subject of test [5] is E. coli MC1000 (wild-type). Description: MIC, broth dilution, E. coli MC1000. Particulars: MIC99, broth dilution.
Test [6] concerns E. coli DRC42 (DRC39 recA::cat). Put plainly: MIC, E. coli DRC42.
For another test, the system named is B. cereus. Put plainly: Killing of B. cereus. The class given is cell-based.
The subject of the next test is Clostridium perfringens. In kind it is cell-based.
In test [7] the test system is E. coli DRC40 (DRC39 ftsZ84). Description: MIC and growth/phenotype, E. coli DRC40.

≈ marks a conversion by molar mass, not a printed value. Where two headings read alike, the source gives them in different places.

FtsZ protofilaments, sequence (P0A9A6 whole entry): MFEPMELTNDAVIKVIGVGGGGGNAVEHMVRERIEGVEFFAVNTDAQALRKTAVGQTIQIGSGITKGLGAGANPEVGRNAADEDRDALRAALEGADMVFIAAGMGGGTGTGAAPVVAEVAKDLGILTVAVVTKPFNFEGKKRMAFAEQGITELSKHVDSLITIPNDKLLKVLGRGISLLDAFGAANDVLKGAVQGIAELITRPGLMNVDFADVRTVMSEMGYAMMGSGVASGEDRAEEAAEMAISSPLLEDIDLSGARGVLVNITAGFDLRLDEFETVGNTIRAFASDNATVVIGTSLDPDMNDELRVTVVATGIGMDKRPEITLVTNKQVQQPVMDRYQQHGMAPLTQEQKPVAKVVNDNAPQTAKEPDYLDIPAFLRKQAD
FtsZ GTPase activity, sequence (P0A9A6 whole entry): as above
M. tuberculosis FtzZ (FtsZMt) GTPase, sequence (P9WN95 whole entry): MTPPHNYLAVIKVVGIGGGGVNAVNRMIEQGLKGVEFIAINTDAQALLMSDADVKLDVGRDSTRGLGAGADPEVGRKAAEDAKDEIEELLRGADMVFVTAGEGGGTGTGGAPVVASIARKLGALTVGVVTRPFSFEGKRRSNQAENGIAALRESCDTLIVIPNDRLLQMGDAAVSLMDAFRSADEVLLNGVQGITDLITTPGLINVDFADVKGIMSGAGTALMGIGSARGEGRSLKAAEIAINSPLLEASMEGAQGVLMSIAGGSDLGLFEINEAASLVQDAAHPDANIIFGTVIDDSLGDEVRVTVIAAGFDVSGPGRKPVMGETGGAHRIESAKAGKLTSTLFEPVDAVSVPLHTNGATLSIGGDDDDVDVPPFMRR

The MIC is the lowest concentration that inhibits growth of the organism. Low readings indicate greater potency, high ones weaker potency. For the compound `CCN1C(=Cc2ccc3ccccc3[n+]2CC)C=Cc2ccccc21.[Cl-]` [3G-09], in the test with E. coli strain DRC39 (alone, 0.375 μM, OD600), the “amount of growth relative to the absence of compound” value is 92% and the growth inhibition was determined as 8%. The “effect on FtsZ GTPase activity in vitro” value on FtsZ GTPase activity is on record as “apparently do not affect FtsZ GTPase activity”. In [1], this compound returned an MIC of 6 µM.

`CCN1C(=Cc2ccc3c4ccccc4ccc3[n+]2CC)C=Cc2ccccc21.Cc1ccc(S(=O)(=O)[O-])cc1` [7N-12]: in the test on E. coli strain DRC39 (individually, 0.3 μM), the “amount of growth relative to the absence of compound” value was 98% and the growth inhibition is 2%. At FtsZ GTPase activity, the “effect on FtsZ GTPase activity in vitro” value is “inhibit FtsZ GTPase activity”.

Turning to `CCN(CC)CCNc1nc(C=Cc2ccc(Cl)cc2)nc2cc3ccccc3cc12` [16L-09], the “effect on FtsZ polymers (class of inhibitor)” value (“effect … (class of inhibitor)” for short) at FtsZ protofilaments is “cause bundling of FtsZ protofilaments”. The “reduction of the MIC when combined with sub-MIC 26E-10” value (“reduction of the MIC when combined” below) with E. coli strain DRC39 was 4 fold. Also, the “effect on FtsZ GTPase activity in vitro” value was “inhibit FtsZ GTPase activity” at FtsZ GTPase activity; “reproducibly and robustly inhibited FtsZ GTPase activity” at FtsZ GTPase activity (listed as 16-L09). Further, in test [1], the MIC stood at 10 µM (≈ 4.31 µg/mL).

One may read the IC50 as the concentration that gives 50% inhibition. Lower therefore signals inhibition by little substance. With `C=CCOc1c(Br)cc(S(=O)(=O)c2cc(Br)c(O)c(Br)c2)cc1Br` [18M-04], on FtsZ protofilaments, the “effect on FtsZ protofilament assembly in vitro” value is on record as “destabilizers of FtsZ protofilament assembly” and the “effect … (class of inhibitor)” value is “dose dependent destabilizing effect on the polymers”. The “activity against gram positive and gram negative bacteria” value in [2] was “kills gram positives”. In addition, the “effect on FtsZ GTPase activity in vitro” value on FtsZ GTPase activity is “reproducibly and robustly inhibited FtsZ GTPase activity”. The compound also returned a concentration for half-maximal inhibition (IC50) in [3] greater than 100 µM.

For the compound `CC[n+]1ccc(/C=C/N(C)c2ccccc2)c2ccccc21.[I-]` [26E-10], the “cell density and filamentation versus DRC40/pBR322” value in the test with DRC40/pBR-ftsZ+ cells (DRC40/pBR-ftsZ+, 5 μM) was “higher cell density and less pronounced filamentation”. Besides, the minimal inhibitory concentration (MIC) against DRC40/pBR-ftsZ+ cells (DRC40 with wild-type ftsZ provided in trans (pBR-ftsZ+)) was 10 µM; in test [5], greater than 40 µM; in [1], 10 µM; in test [6] it was 10 µM; in test [7] (E. coli DRC40 (DRC39 ftsZ84), slight turbidity believed to be unlysed filaments) it was 2.5 µM. For the same compound, in test [4] (10 μM (MIC), DRC39, within 60 min of treatment), the “cell length (filamentation)” value is roughly 4 ×. In addition, the “Z-rings in elongated cells” value in test [4] (10 μM, DRC39, 60 min) was “markedly reduced in number and diminished in intensity”. In test [4] (DRC39, 90 min), the “Z-rings after 90 min treatment” value was “most of the cells were devoid of distinct Z-rings”. The “amount of growth relative to the absence of compound” value in the test on E. coli strain DRC39 (singly, 5 μM, OD600) was found to be 41%. For the same compound, in the test with E. coli strain DRC39 (singly, 5 μM, OD600), the growth inhibition worked out at 59%. Further, the growth and morphology entry in [1] (DRC39, 5 μM, 30° C.) is “mixture of filaments of varying lengths and short cells present at a low density”. Further, in the test with B. cereus, the “killing of B. cereus” value is “efficiently killed”. In the test with Clostridium perfringens (80 μM, anaerobic conditions), the phenotype and growth entry was “filamentation phenotype in the presence of 80 μM 26E-10 without any overt effect on cell growth”. Moreover, the phenotype result in the test with Clostridium perfringens (Clostridium perfringens) is “filaments”. In test [7] (DRC40/pBR322, 5 μM, 30° C.), the growth entry was “absolutely no growth”.

`Oc1ccc(Cl)cc1Cc1cc(Cl)cc(Cc2cc(Cl)ccc2O)c1O` [27D-12]: the “effect … (class of inhibitor)” value at FtsZ protofilaments is reported as “dose dependent destabilizing effect on the polymers”. Besides, in [2], the “activity against gram positive and gram negative bacteria” value is “effective against gram positive bacteria at very low concentrations and also kills gram negative species”. The “effect on FtsZ GTPase activity in vitro” value on FtsZ GTPase activity is “inhibit FtsZ GTPase activity”; at FtsZ GTPase activity (listed as 27-D12) it was “reproducibly and robustly inhibited FtsZ GTPase activity”. The minimal inhibitory concentration (MIC) in test [1] is 20 µM (≈ 8.19 µg/mL).

Turning to `CC[n+]1c(/C=C/N(C)c2ccccc2)n(-c2ccccc2)c2ccc(-c3nc4ccccc4s3)cc21` [27F-02], at FtsZ protofilaments, the “effect on FtsZ protofilament assembly in vitro” value is given as “destabilizers of FtsZ protofilament assembly” and the “effect … (class of inhibitor)” value was “cause bundling of FtsZ protofilaments”. Also, the “reduction of the MIC when combined” value with E. coli strain DRC39 was 5 fold. Besides, the “effect on FtsZ GTPase activity in vitro” value on FtsZ GTPase activity is reported as “inhibit FtsZ GTPase activity”. In addition, on FtsZ GTPase activity (listed as 27-F02), the “effect on FtsZ GTPase activity in vitro” value is “reproducibly and robustly inhibited FtsZ GTPase activity”. The MIC in test [1] came to 5 µM. In [3], this compound gave an IC50 of 70 µM.

As to `Nc1c(C=Cc2cc3cc(C4=NCCN4)ccc3o2)[nH]c2cc(C3=NCCN3)ccc12` [58P-18], the “FtsZ ring in treated cells” value in test [4] (40 μM, DRC39 cells) is given as “none of the treated cells appear to contain a medial FtsZ ring”. Moreover, the “time to start of cell elongation” value in test [4] (40 μM, DRC39 cells) is listed as no more than 60 min. In addition, the “effect … (class of inhibitor)” value on FtsZ protofilaments was “cause bundling of FtsZ protofilaments”. In addition, the “reduction of the MIC when combined” value in the test on E. coli strain DRC39 is no less than 2 fold. Moreover, the “effect on FtsZ GTPase activity in vitro” value on FtsZ GTPase activity is “inhibit FtsZ GTPase activity”; at FtsZ GTPase activity (listed as 58-P18) it was “reproducibly and robustly inhibited FtsZ GTPase activity”. In addition, in test [1], the minimal inhibitory concentration (MIC) worked out at 80 µM (≈ 32.8 µg/mL).
